# Experimental data: ChEMBL document CHEMBL4602605, “Fluoroquinolones structural and medicinal developments (2013-2018): Where are we now?” (Bioorg Med Chem, 2019)
# How the values were obtained:
# Escherichia coli [1] = test: Antimicrobial activity against Escherichia coli ATCC 25922 by CLSI method; assay type: functional
# Staphylococcus aureus [2] = test: Antimicrobial activity against Staphylococcus aureus ATCC 25923 by CLSI method; assay type: functional
# [3] = system: Mycobacterium tuberculosis; test: Antimicrobial activity against Mycobacterium tuberculosis H37Rv incubated for 10 days by microbroth dilution method; assay type: functional; details: 240 h
# Mycobacterium avium = test: Antimicrobial activity against Mycobacterium avium incubated for 10 days by microbroth dilution method; assay type: functional; details: 240 h
# Mycolicibacter terrae = test: Antimicrobial activity against Mycobacterium terrae incubated for 10 days by microbroth dilution method; assay type: functional; details: 240 h
# Enterococcus faecalis [4] = test: Antimicrobial activity against Enterococcus faecalis ATCC 29212 incubated for 24 hrs by serial dilution method; assay type: functional; details: ATCC 29212, 24 h
# Staphylococcus aureus [5] = test: Antimicrobial activity against methicillin-susceptible Staphylococcus aureus ATCC 29213 incubated for 24 hrs by serial dilution method; assay type: functional; details: ATCC 29213, 24 h
# Staphylococcus aureus [6] = test: Antimicrobial activity against methicillin-resistant Staphylococcus aureus ATCC 33591 incubated for 24 hrs by serial dilution method; assay type: functional; details: ATCC 33591, 24 h
# Escherichia coli [7] = test: Antimicrobial activity against Escherichia coli ATCC 35218 incubated for 24 hrs by serial dilution method; assay type: functional; details: ATCC 35218, 24 h
# Klebsiella pneumoniae [8] = test: Antimicrobial activity against Klebsiella pneumoniae ATCC 35657 incubated for 24 hrs by serial dilution method; assay type: functional; details: ATCC 35657, 24 h
# Moraxella catarrhalis = test: Antimicrobial activity against Moraxella catarrhalis ATCC 25238 incubated for 24 hrs by serial dilution method; assay type: functional; details: ATCC 25238, 24 h
# A549 = test: Growth inhibition of human A549 cells at 10 uM incubated for 48 hrs by MTT assay relative to control; assay type: functional; details: A549, 48 h, read-out: GI
# HCT-116 = test: Growth inhibition of human HCT116 cells at 10 uM incubated for 48 hrs by MTT assay relative to control; assay type: functional; details: HCT-116, 48 h, read-out: GI
# HeLa = test: Growth inhibition of human HeLa cells at 10 uM incubated for 48 hrs by MTT assay relative to control; assay type: functional; details: read-out: GI
# PANC-1 = test: Growth inhibition of human PANC1 cells at 10 uM incubated for 48 hrs by MTT assay; assay type: functional; details: PANC-1, 48 h, read-out: GI
# [9] = system: Mycolicibacterium smegmatis; test: Antimicrobial activity against Mycobacterium smegmatis incubated for 30 to 32 hrs by spectrophotometry based assay; assay type: functional
# PC-3 = test: Growth inhibition of human PC3 cells by MTT assay; assay type: functional, cell-based
# Escherichia coli [10] = test: Antimicrobial activity against Escherichia coli ATCC 9637 incubated for 24 hrs by CLSI-based broth microdilution method; assay type: functional; details: W ATCC 9637, 24 h
# Pseudomonas aeruginosa [11] = test: Antimicrobial activity against Pseudomonas aeruginosa ATCC BAA-427 incubated for 24 hrs by CLSI-based broth microdilution method; assay type: functional; details: ATCC BAA-427, 24 h
# Staphylococcus aureus [12] = test: Antimicrobial activity against methicillin-resistant Staphylococcus aureus ATCC 700699 incubated for 24 hrs by CLSI-based broth microdilution method; assay type: functional; details: ATCC 700699, 24 h
# Staphylococcus aureus [13] = test: Antimicrobial activity against gentamicin-resistant Staphylococcus aureus ATCC 33592 incubated for 24 hrs by CLSI-based broth microdilution method; assay type: functional; details: ATCC 33592, 24 h
# Klebsiella pneumoniae [14] = test: Antimicrobial activity against Klebsiella pneumoniae ATCC 27736 incubated for 24 hrs by CLSI-based broth microdilution method; assay type: functional; details: ATCC 27736, 24 h
# Staphylococcus aureus [15] = test: Antimicrobial activity against Staphylococcus aureus ATCC 29213 incubated for 24 hrs by CLSI-based dilution method; assay type: functional; details: ATCC 29213, 24 h
# Staphylococcus aureus [16] = test: Antimicrobial activity against Staphylococcus aureus ATCC 25923 incubated for 24 hrs by CLSI-based dilution method; assay type: functional; details: ATCC 25923, 24 h
# Escherichia coli [17] = test: Antimicrobial activity against penicillin-resistant Escherichia coli at < 1 ug/ml relative to control; assay type: functional
# Aspergillus clavatus = test: Antifungal activity against Aspergillus clavatus after overnight incubation by agar well diffusion method; assay type: functional
# Candida albicans = test: Antifungal activity against Candida albicans after overnight incubation by agar well diffusion method; assay type: functional
# Pseudomonas aeruginosa [18] = test: Antimicrobial activity against Pseudomonas aeruginosa ATCC 43288 incubated for 18 to 24 hrs by microbroth dilution method; assay type: functional
# [19] = system: Yersinia pseudotuberculosis; test: Antimicrobial activity against Yersinia pseudotuberculosis ATCC 911 incubated for 18 to 24 hrs by microbroth dilution method; assay type: functional
# Staphylococcus aureus [20] = test: Antimicrobial activity against Staphylococcus aureus ATCC 25923 incubated for 18 to 24 hrs by microbroth dilution method; assay type: functional
# Enterococcus faecalis [21] = test: Antimicrobial activity against Enterococcus faecalis ATCC 29212 incubated for 18 to 24 hrs by microbroth dilution method; assay type: functional
# Bacillus cereus = test: Antimicrobial activity against Bacillus cereus 709 Roma incubated for 18 to 24 hrs by microbroth dilution method; assay type: functional
# [22] = system: Mycolicibacterium smegmatis; test: Antimicrobial activity against Mycobacterium smegmatis ATCC 607 incubated for 48 to 72 hrs by microbroth dilution method; assay type: functional
# Escherichia coli [23] = test: Antimicrobial activity against Escherichia coli ATCC 25922 incubated for 18 to 24 hrs by microbroth dilution method; assay type: functional
compound,measurement,setting,value
CCN1CCN(c2cc3c(cc2F)c(=O)c(C(=O)O)cn3C2CC2)CC1 [ENROFLOXACIN],MIC,Escherichia coli [1],0.031 µg/mL
same,MIC,Staphylococcus aureus [2],2 µg/mL
CCn1cc(C(=O)O)c(=O)c2cc(F)c(-c3cc4cc(C(C)(C)C)cc(C(C)(C)C)c4oc3=O)cc21,MIC,[3],3.1 µg/mL
same,MIC,Mycobacterium avium,3.1 µg/mL
same,MIC,Mycolicibacter terrae,1.5 µg/mL
CCCN(CCC)Cc1cn(-c2cc3c(cc2F)c(=O)c(C(=O)NO)cn3C2CC2)nn1,MIC,Enterococcus faecalis [4],64 µg/mL
same,MIC,Staphylococcus aureus [5],64 µg/mL
same,MIC,Staphylococcus aureus [6],> 64 µg/mL
same,MIC,Escherichia coli [7],64 µg/mL
same,MIC,Klebsiella pneumoniae [8],32 µg/mL
same,MIC,Moraxella catarrhalis,64 µg/mL
same,inhibition of growth at 10 µM,A549,20%
same,inhibition of growth at 10 µM,HCT-116,10%
same,inhibition of growth at 10 µM,HeLa,15%
same,inhibition of growth at 10 µM,PANC-1,15%
O=C(O)c1cn(C2CC2)c2cc(N3CCN(Cc4ccccc4)CC3)c(F)cc2c1=O,MIC,Escherichia coli [1],0.25 µg/mL
same,MIC,Staphylococcus aureus [2],0.25 µg/mL
COc1c(N2CCN(C)CC2)c(F)cc2c(=O)c(C(=O)N/N=C\c3cccc(O)c3)cn(C3CC3)c12,MIC,[9],27.2 µM
same,IC50,PC-3,3.4 µg/mL
CCn1cc(C(=O)O)c(=O)c2cc(F)c(-n3cc(CO[C@H]4O[C@H](COC(C)=O)[C@@H](OC(C)=O)[C@H](OC(C)=O)[C@H]4OC(C)=O)nn3)c(F)c21,MIC,Escherichia coli [10],> 50 µg/mL
same,MIC,Pseudomonas aeruginosa [11],> 50 µg/mL
same,MIC,Staphylococcus aureus [12],> 50 µg/mL
same,MIC,Staphylococcus aureus [13],> 50 µg/mL
same,MIC,Klebsiella pneumoniae [14],> 50 µg/mL
same,MIC,Staphylococcus aureus [15],> 50 µg/mL
same,MIC,Staphylococcus aureus [16],> 50 µg/mL
CCCCCOC(=O)c1cn(C2CC2)c2cc(N3CCNCC3)c(F)cc2c1=O,inhibition (INH),Escherichia coli [17],>60%
COc1c(N2CCN(C)CC2)c(F)cc2c(=O)c(C(=O)N/N=C\c3cccc(C)c3)cn(C3CC3)c12,MIC,[9],42.5 µM
same,IC50,PC-3,10 µg/mL
same,inhibition zone (IZ),Aspergillus clavatus,11 mm
same,inhibition zone (IZ),Candida albicans,10 mm
O=C(O)c1cn(C2CC2)c2cc(N3CCN(Cn4nc(CN5CCN(c6ccc([N+](=O)[O-])cc6)CC5)oc4=S)CC3)c(F)cc2c1=O,MIC,Pseudomonas aeruginosa [18],0.03 µg/mL
same,MIC,[19],0.03 µg/mL
same,MIC,Staphylococcus aureus [20],0.03 µg/mL
same,MIC,Enterococcus faecalis [21],0.03 µg/mL
same,MIC,Bacillus cereus,0.03 µg/mL
same,MIC,[22],0.03 µg/mL
same,MIC,Escherichia coli [23],0.03 µg/mL
CCOc1cccc2cc(-c3cc4c(cc3F)c(=O)c(C(=O)O)cn4CC)c(=O)oc12,MIC,[3],1.5 µg/mL
same,MIC,Mycobacterium avium,1.5 µg/mL
same,MIC,Mycolicibacter terrae,0.7 µg/mL
O=C(NO)c1cn(C2CC2)c2cc(-n3cc(CN4CCCCC4)nn3)c(F)cc2c1=O,MIC,Enterococcus faecalis [4],> 64 µg/mL
same,MIC,Staphylococcus aureus [5],> 64 µg/mL
same,MIC,Staphylococcus aureus [6],> 64 µg/mL
same,MIC,Escherichia coli [7],64 µg/mL
same,MIC,Klebsiella pneumoniae [8],64 µg/mL
same,MIC,Moraxella catarrhalis,64 µg/mL
same,inhibition of growth at 10 µM,A549,10%
same,inhibition of growth at 10 µM,HCT-116,20%
same,inhibition of growth at 10 µM,HeLa,5%
same,inhibition of growth at 10 µM,PANC-1,10%
O=C(O)c1cn(C2CC2)c2cc(N3CCN(C(=O)c4ccccc4)CC3)c(F)cc2c1=O,MIC,Escherichia coli [1],2 µg/mL
same,MIC,Staphylococcus aureus [2],1 µg/mL
CCN(CC)Cc1cn(-c2cc3c(cc2F)c(=O)c(C(=O)NO)cn3C2CC2)nn1,MIC,Enterococcus faecalis [4],64 µg/mL
same,MIC,Staphylococcus aureus [5],64 µg/mL
same,MIC,Staphylococcus aureus [6],> 64 µg/mL
same,MIC,Escherichia coli [7],16 µg/mL
same,MIC,Klebsiella pneumoniae [8],8 µg/mL
same,MIC,Moraxella catarrhalis,16 µg/mL
same,inhibition of growth at 10 µM,A549,40%
same,inhibition of growth at 10 µM,HCT-116,30%
same,inhibition of growth at 10 µM,HeLa,10%
same,inhibition of growth at 10 µM,PANC-1,30%
CCn1c(CN2CCN(c3ccc([N+](=O)[O-])cc3)CC2)nn(CN2CCN(c3cc4c(cc3F)c(=O)c(C(=O)O)cn4CC)CC2)c1=S,MIC,Pseudomonas aeruginosa [18],0.25 to 0.5 µg/mL
same,MIC,[19],0.25 µg/mL
same,MIC,Staphylococcus aureus [20],0.25 to 0.99 µg/mL
same,MIC,Enterococcus faecalis [21],0.122 µg/mL
same,MIC,Bacillus cereus,0.122 to 0.25 µg/mL
same,MIC,[22],0.244 µg/mL
same,MIC,Escherichia coli [23],≤ 0.03 µg/mL
COc1c(N2CCN(C)CC2)c(F)cc2c(=O)c(C(=O)N/N=C\c3c(Cl)cccc3Cl)cn(C3CC3)c12,MIC,[9],27 µM
same,IC50,PC-3,4.9 µg/mL
same,inhibition zone (IZ),Candida albicans,9 mm
